Source: patent US5969017A, “Methods of treating or preventing cardiac arrhythmia” (Merck & Co., Inc., priority 1997, dated 1999)
“Also recorded” adds a separate entry of the source. Where two headings read alike, the source gives them in different places.

Target: T1, hKv1.5 expressed in Chinese Hamster Ovary (CHO) cells (Homo sapiens, UniProt P22460)
T1 construct: expressed in transfected cells; host or cells: CHO-K1 cells (CHOKI in source), pcDNAI/Neo plasmid, G418-selected clones
Assay: Voltage clamp measurement of hKv1.5 block (rested state, use-dependent, rate-dependent) in CHO cells
Assay type: cell-based
Settings: for Rate-Dpdnt Ratio: 3 Hz vs 1 Hz, last pulse, <1 = rate-dependent; for Use-Dpdnt Ratio: 10th vs 1st pulse @ 1 Hz, <1 = use-dependent; for selective blockade of hKv1.5 (in words): relative to other cardiac K+ channels; for rate-dependent ratio for block of hKv1.5 (bound) / use-dependent ratio for block of hKv1.5 (bound): summary of Table 1
Experimental: A. Measurement of Kv1.5 in CHO cells
Expression of Kv1.5 in CHO Cells
A cDNA encoding Kv1.5, isolated from a human fetal heart library, was subcloned into pcDNAI/Neo (Invitrogen) as a Hind III--Xba I fragment.
CHOKI cells were plated at 2.7×10^4 cells/60 mm dish and incubated at 37° C., in a 5% CO2 environment for three days. Cells were then washed twice and covered with 3 ml of OptiMEM medium (Gibco). Plasmid/DOTAP solution (consisting of […] of Kv1.5 in pcDNAI/Neo and […] DOTAP transfection reagent (Boehringer Mannheim) in 1 ml of OptiMEM) was added dropwise to each plate while swirling. Plates were incubated overnight and the media then changed to 5 mls of F12 (Gibco) supplemented with 10% FBS (Sigma), 1,000 U/ml penicillin […] streptomycin (Gibco), and 2 mM glutamine (Gibco). After two more days, the cells were trypsinized and replated on 100 mm dishes in supplemented F12 media including 1 mg/ml G418 (Gibco). The medium was changed daily until nontransfected cells were killed. Cell lines were grown from individual clones and tested for expression of Kv1.5 using both the ^86 RB efflux assay and voltage clamp protocols. […] These cells were maintained in culture and on each experimental day were freshly isolated by mild trypsinization.
The patch-clamp technique was used to record ionic currents in the whole-cell configuration. Patch pipettes were obtained using a two stage puller from square bore (1.0 mm o.d.) borosillicate capillary tubing. Pipettes were filled with the following solution (in mM/L): 110 K-Gluconate or K-Aspartate, 20 KCl, 5 MgATP, 5 EGTA, 5-10 HEPES, pH 7.2. The electrodes had tip resistances ranging from 3 to 10 Mohm when filled with this solution. Following seal formation, the membrane was ruptured by gentle suction to establish the whole-cell configuration, and negative pressure was maintained on the pipette using a 1 ml gas-tight syringe attached via air tight tubing to the suction port of the microelectrode holder. […] Currents were sampled at 5 kHz using an Axopatch 200 A amplifier (Axon Instruments) or a List EPC-7 clamp amplifier (List Electronic) and were low pass filtered at 1 kHz.
Measurements of Kv1.5 Expressed Currents:
Kv1.5 currents were elicited by 150 ms depolarizing test pulses to +40 mV from a holding potential of -80 mV. The effects of test agents were assessed at steady-state. Data was analyzed as % block from control current amplitude. The amplitude of Kv1.5 was measured as the amplitude of the time-dependent net outward current at the end of the test pulse, relative to the holding current level. […] All experiments were performed at room temperature (22-24° C.).
C. Measurement of Use-Dependent and Rate-Dependent Block.
Pulses were applied in 10 second long trains delivered after 30 second rest intervals at frequencies of 1 Hz (10 pulses) or 3 Hz (30 pulses). Percent block of the current is defined as the % decrease in the current amplitude produced by an agent during a given pulse relative to the control current amplitude for that pulse. Rested-state block is the block of the current during the first pulse in a train following the 30 sec rest period. Use-dependent block is block that occurs to a progessively greater extent with each successive depolarization in a train or sequence of pulses or depolarizations delivered at a given rate or frequency. Thus, during a train of 10 depolarizations at frequency of 1 Hz, use-dependent block is assessed as the ratio of the amount of block for the 10th pulse relative to block for the 1st pulse (rested state block) of the train. Rate-dependent block is block that occurs to a greater extent or preferentially at faster rates of depolarization or heart rates. Thus, rate-dependent block is assessed as the ratio of the amount of block of the current during the last pulse of the 10 sec train at 3 Hz vs. 1 Hz.

[1] = 30 nM, 1st pulse @ 1 Hz, +40 mV from -80 mV, read-out: Average % Block, Rested State, 1st pulse
[2] = 30 nM, 10th pulse @ 1 Hz, read-out: Average % Block, Use-Dpdnt, 10th pulse
[3] = 30 nM, 30th pulse @ 3 Hz, read-out: Average % Block, Rate-Dpdnt, 30th pulse
[4] = 100 nM, 1st pulse @ 1 Hz, read-out: Average % Block, Rested State, 1st pulse
[5] = 100 nM, 10th pulse @ 1 Hz, read-out: Average % Block, Use-Dpdnt, 10th pulse
[6] = 100 nM, 30th pulse @ 3 Hz, read-out: Average % Block, Rate-Dpdnt, 30th pulse
[7] = 300 nM, 1st pulse @ 1 Hz, read-out: Average % Block, Rested State, 1st pulse
[8] = 300 nM, 10th pulse @ 1 Hz, read-out: Average % Block, Use-Dpdnt, 10th pulse

T1 sequence (P22460 whole entry): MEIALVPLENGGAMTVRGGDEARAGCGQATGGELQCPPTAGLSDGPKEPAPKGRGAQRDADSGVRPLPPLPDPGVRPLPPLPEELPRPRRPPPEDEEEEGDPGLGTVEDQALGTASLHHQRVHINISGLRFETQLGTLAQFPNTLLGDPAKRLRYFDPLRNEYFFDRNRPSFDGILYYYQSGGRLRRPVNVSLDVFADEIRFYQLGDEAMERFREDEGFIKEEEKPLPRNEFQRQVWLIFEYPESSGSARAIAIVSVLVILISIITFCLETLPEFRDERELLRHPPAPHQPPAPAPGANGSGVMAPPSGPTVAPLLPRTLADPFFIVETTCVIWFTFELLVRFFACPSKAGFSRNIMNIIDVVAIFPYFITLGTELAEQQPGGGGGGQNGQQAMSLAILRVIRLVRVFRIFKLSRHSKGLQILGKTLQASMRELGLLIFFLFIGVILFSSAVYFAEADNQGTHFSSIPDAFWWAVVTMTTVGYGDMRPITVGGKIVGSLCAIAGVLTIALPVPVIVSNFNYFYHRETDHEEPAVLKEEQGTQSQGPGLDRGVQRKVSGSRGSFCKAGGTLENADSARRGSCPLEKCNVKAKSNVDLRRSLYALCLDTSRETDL

SMILES | rate-dependent block of hKv1.5 (in words) | use-dependent block of hKv1.5 (in words) | inhibition at 0.03 µM [1] | inhibition at 0.03 µM [2] | inhibition at 0.03 µM [3] | inhibition at 0.1 µM [4] | Rate-Dpdnt Ratio (100 nM) | inhibition at 0.1 µM [5] | Use-Dpdnt Ratio (100 nM) | inhibition at 0.1 µM [6] | selective blockade of hKv1.5 (in words) | rate-dependent ratio for block of hKv1.5 (bound) | use-dependent ratio for block of hKv1.5 (bound) | inhibition at 0.3 µM [7] | inhibition at 0.3 µM [8] | Use-Dpdnt Ratio (300 nM) | further results
COc1ccc(-n2nc(Sc3ccc(Cl)cc3)c(C)c(C#N)c2=O)cc1 [C, 6-(4-Chlorophenylthio)-2-(4-methoxyphenyl)-5-methyl-3-oxo-2,3-dihydropyridazine-4-carbonitrile] | rate-dependent blockers | use-dependentblockade | 6.6% | 15.7% | 38% | 51% | 0.83 | 75.5% | 0.68 | 91.1% | selective blockade | < 1 | < 1 |  |  |  | Rate-Dpdnt Ratio (30 nM): 0.41; Use-Dpdnt Ratio (30 nM): 0.42
CC1CCC(C(C)C)C(P(=O)(c2ccccc2)c2ccccc2)C1 (stereo not drawn) [A, (2-Isopropyl-5-methylcyclohexyl)diphenylphosphine oxide] | rate-dependent blockers; also recorded: strong rate-dependent profile | use-dependentblockade | 21.2% | 38.5% | 57.5% | 32.1% |  | 64.6% |  | 82.9% |  |  |  |  |  |  | use-dependent block of hKv1.5 (in words) (listed as (2-isopropyl-5-methylcyclohexyl) diphenyl-phosphine oxide): strong use-dependent profile
Cc1cc(C)c(CP(=O)(c2ccccc2)c2ccccc2)c(-c2ccc(F)c(C)c2)c1 [B, 2-(Diphenylphosphinylmethyl)-4'-fluoro-3,5,3'-trimethyl-biphenyl] | rate-dependent blockers | use-dependentblockade |  |  |  | 23.3% | 0.66 | 29.6% | 0.79 | 44.9% | selective blockade | < 1 | < 1 | 43.5% | 56.6% | 0.77 | Rate-Dpdnt Ratio (300 nM): 0.84; inhibition at 0.3 µM (300 nM, 30th pulse @ 3 Hz, read-out: Average % Block, Rate-Dpdnt, 30th pulse): 67.5%
COc1ccc(-n2nc(Sc3ccc(C)cc3)c(C)c(C#N)c2=O)cc1 [D] |  | use-dependentblockade |  |  |  | 31.1% |  | 34% | 0.91 |  | selective blockade |  | < 1 | 52% | 62.5% | 0.83 | 
